# From the supplement of paper PMC10307832
# How the values were obtained:
# Assay in all cases: relative viability (nuclei count vs DMSO), 5 days (fraction); higher = more cells survive
# NCI-H650 = system: NCI-H650
# Method in brief: (§1)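 Medians of duplicate plates are given as relative viability. That measure is the nuclei count in treated wells divided by the count in vehicle wells. Counts were taken on 4× images of lung cancer cell lines in 1536-well plates, 5 days after pin-tool dosing the day after seeding with one drug alone or a fixed anchor-drug dose plus five library-drug doses (not always all listed) in √10 steps.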
# UMC-11 = system: UMC-11
# Method in brief: as §1
# NCI-H838 = system: NCI-H838
# Method in brief: as §1
# HCC-15 = system: HCC-15
# Method in brief: as §1
# NCI-H460 = system: NCI-H460
# Method in brief: as §1
# HARA = system: HARA
# Method in brief: as §1
# NCI-H2342 = system: NCI-H2342
# Method in brief: as §1
# NCI-H1651 = system: NCI-H1651
# Method in brief: as §1
# NCI-H522 = system: NCI-H522
# Method in brief: as §1
# NCI-H2347 = system: NCI-H2347
# Method in brief: as §1
# COR-L23 = system: COR-L23
# Method in brief: as §1
# NCI-H358 = system: NCI-H358
# Method in brief: as §1
# NCI-H2009 = system: NCI-H2009
# Method in brief: as §1
# EPLC-272H = system: EPLC-272H
# Method in brief: as §1
# PC-14 = system: PC-14
# Method in brief: as §1
# NCI-H2085 = system: NCI-H2085
# Method in brief: as §1
# NCI-H2126 = system: NCI-H2126
# Method in brief: as §1
# LU99A = system: LU99A
# Method in brief: as §1
# NCI-H1915 = system: NCI-H1915
# Method in brief: as §1
# LC-2-ad = system: LC-2-ad
# Method in brief: as §1
# NCI-H1993 = system: NCI-H1993
# Method in brief: as §1
# HCC-78 = system: HCC-78
# Method in brief: as §1
# SW 1573 = system: SW 1573
# Method in brief: as §1
structure (smiles),measurement,setting,value
CC(C)Oc1cc(Nc2nc(N[C@@H](C)c3ccc(F)cn3)ncc2Cl)n[nH]1 [AZ23] + Nc1nc2[nH]cc(CCc3ccc(C(=O)N[C@@H](CCC(=O)O)C(=O)O)cc3)c2c(=O)[nH]1 [Pemetrexed] (partner 0.2 µM),relative viability,NCI-H650; first compound 0.01 µM,0.936
same,relative viability,NCI-H650; first compound 0.03162 µM,0.969
same,relative viability,NCI-H650; first compound 0.3162 µM,0.888
same,relative viability,UMC-11; first compound 0.01 µM,0.802
same,relative viability,UMC-11; first compound 0.03162 µM,0.814
same,relative viability,UMC-11; first compound 0.3162 µM,0.791
same,relative viability,NCI-H838; first compound 0.01 µM,0.207
same,relative viability,NCI-H838; first compound 0.03162 µM,0.27
same,relative viability,NCI-H838; first compound 0.3162 µM,0.243
same,relative viability,HCC-15; first compound 0.01 µM,0.204
same,relative viability,HCC-15; first compound 0.03162 µM,0.222
same,relative viability,HCC-15; first compound 0.3162 µM,0.208
same,relative viability,NCI-H460; first compound 0.01 µM,0.0522
same,relative viability,NCI-H460; first compound 0.03162 µM,0.0661
same,relative viability,NCI-H460; first compound 0.3162 µM,0.0611
same,relative viability,HARA; first compound 0.01 µM,0.147
same,relative viability,HARA; first compound 0.03162 µM,0.309
same,relative viability,HARA; first compound 0.3162 µM,0.281
same,relative viability,NCI-H2342; first compound 0.01 µM,0.903
same,relative viability,NCI-H2342; first compound 0.03162 µM,0.811
same,relative viability,NCI-H2342; first compound 0.3162 µM,0.776
same,relative viability,NCI-H1651; first compound 0.01 µM,0.349
same,relative viability,NCI-H1651; first compound 0.03162 µM,0.597
same,relative viability,NCI-H1651; first compound 0.3162 µM,0.615
same,relative viability,NCI-H522; first compound 0.01 µM,1
same,relative viability,NCI-H522; first compound 0.03162 µM,1
same,relative viability,NCI-H522; first compound 0.3162 µM,1.11
same,relative viability,NCI-H2347; first compound 0.01 µM,0.379
same,relative viability,NCI-H2347; first compound 0.03162 µM,0.412
same,relative viability,NCI-H2347; first compound 0.3162 µM,0.459
same,relative viability,COR-L23; first compound 0.01 µM,0.172
same,relative viability,COR-L23; first compound 0.03162 µM,0.193
same,relative viability,COR-L23; first compound 0.3162 µM,0.189
same,relative viability,NCI-H358; first compound 0.01 µM,0.151
same,relative viability,NCI-H358; first compound 0.03162 µM,0.175
same,relative viability,NCI-H358; first compound 0.3162 µM,0.17
same,relative viability,NCI-H2009; first compound 0.01 µM,1.16
same,relative viability,NCI-H2009; first compound 0.03162 µM,1.1
same,relative viability,NCI-H2009; first compound 0.3162 µM,1.02
same,relative viability,EPLC-272H; first compound 0.03162 µM,0.322
same,relative viability,EPLC-272H; first compound 0.3162 µM,0.302
same,relative viability,PC-14; first compound 0.01 µM,0.127
same,relative viability,PC-14; first compound 0.03162 µM,0.136
same,relative viability,PC-14; first compound 0.3162 µM,0.147
same,relative viability,NCI-H2085; first compound 0.01 µM,0.806
same,relative viability,NCI-H2085; first compound 0.03162 µM,0.907
same,relative viability,NCI-H2085; first compound 0.3162 µM,0.994
same,relative viability,NCI-H2126; first compound 0.01 µM,0.62
same,relative viability,NCI-H2126; first compound 0.03162 µM,0.695
same,relative viability,NCI-H2126; first compound 0.3162 µM,0.679
same,relative viability,LU99A; first compound 0.01 µM,0.146
same,relative viability,LU99A; first compound 0.03162 µM,0.199
same,relative viability,LU99A; first compound 0.3162 µM,0.209
same,relative viability,NCI-H1915; first compound 0.01 µM,0.463
same,relative viability,NCI-H1915; first compound 0.03162 µM,0.485
same,relative viability,NCI-H1915; first compound 0.3162 µM,0.607
same,relative viability,LC-2-ad; first compound 0.01 µM,0.275
same,relative viability,LC-2-ad; first compound 0.03162 µM,0.279
same,relative viability,LC-2-ad; first compound 0.3162 µM,0.297
same,relative viability,NCI-H1993; first compound 0.01 µM,0.589
same,relative viability,NCI-H1993; first compound 0.03162 µM,0.564
same,relative viability,NCI-H1993; first compound 0.3162 µM,0.563
same,relative viability,HCC-78; first compound 0.01 µM,0.976
same,relative viability,HCC-78; first compound 0.03162 µM,0.902
same,relative viability,HCC-78; first compound 0.3162 µM,0.938
same,relative viability,SW 1573; first compound 0.01 µM,0.958
same,relative viability,SW 1573; first compound 0.03162 µM,0.792
same,relative viability,SW 1573; first compound 0.3162 µM,0.849
CC(C)Oc1cc(Nc2nc(N[C@@H](C)c3ccc(F)cn3)ncc2Cl)n[nH]1 [AZ23] + CC(=O)Nc1cccc(-n2c(=O)n(C3CC3)c(=O)c3c(Nc4ccc(I)cc4F)n(C)c(=O)c(C)c32)c1 [Trametinib] (partner 0.02 µM),relative viability,NCI-H650; first compound 0.01 µM,0.955
same,relative viability,NCI-H650; first compound 0.03162 µM,0.99
same,relative viability,NCI-H650; first compound 0.3162 µM,0.987
same,relative viability,UMC-11; first compound 0.01 µM,0.591
same,relative viability,UMC-11; first compound 0.03162 µM,0.872
same,relative viability,UMC-11; first compound 0.3162 µM,0.729
same,relative viability,NCI-H838; first compound 0.01 µM,0.615
same,relative viability,NCI-H838; first compound 0.03162 µM,0.561
same,relative viability,NCI-H838; first compound 0.3162 µM,0.456
same,relative viability,HCC-15; first compound 0.01 µM,0.382
same,relative viability,HCC-15; first compound 0.03162 µM,0.413
same,relative viability,HCC-15; first compound 0.3162 µM,0.243
same,relative viability,NCI-H460; first compound 0.01 µM,0.119
same,relative viability,NCI-H460; first compound 0.03162 µM,0.128
same,relative viability,NCI-H460; first compound 0.3162 µM,0.166
same,relative viability,HARA; first compound 0.01 µM,0.666
same,relative viability,HARA; first compound 0.03162 µM,0.886
same,relative viability,HARA; first compound 0.3162 µM,0.399
same,relative viability,NCI-H2342; first compound 0.01 µM,0.752
same,relative viability,NCI-H2342; first compound 0.03162 µM,0.828
same,relative viability,NCI-H2342; first compound 0.3162 µM,0.72
same,relative viability,NCI-H1651; first compound 0.01 µM,0.829
same,relative viability,NCI-H1651; first compound 0.03162 µM,0.87
same,relative viability,NCI-H1651; first compound 0.3162 µM,0.854
same,relative viability,NCI-H522; first compound 0.01 µM,0.894
same,relative viability,NCI-H522; first compound 0.03162 µM,0.796
same,relative viability,NCI-H522; first compound 0.3162 µM,0.617
same,relative viability,NCI-H2347; first compound 0.01 µM,0.272
same,relative viability,NCI-H2347; first compound 0.03162 µM,0.272
same,relative viability,NCI-H2347; first compound 0.3162 µM,0.232
same,relative viability,COR-L23; first compound 0.01 µM,0.446
same,relative viability,COR-L23; first compound 0.03162 µM,0.659
same,relative viability,COR-L23; first compound 0.3162 µM,0.612
same,relative viability,NCI-H358; first compound 0.01 µM,0.116
same,relative viability,NCI-H358; first compound 0.03162 µM,0.137
same,relative viability,NCI-H358; first compound 0.3162 µM,0.124
same,relative viability,NCI-H2009; first compound 0.01 µM,0.257
same,relative viability,NCI-H2009; first compound 0.03162 µM,0.243
same,relative viability,NCI-H2009; first compound 0.3162 µM,0.284
same,relative viability,EPLC-272H; first compound 0.03162 µM,0.267
same,relative viability,EPLC-272H; first compound 0.3162 µM,0.274
same,relative viability,PC-14; first compound 0.01 µM,0.599
same,relative viability,PC-14; first compound 0.03162 µM,0.783
same,relative viability,PC-14; first compound 0.3162 µM,0.749
same,relative viability,NCI-H2085; first compound 0.01 µM,0.477
same,relative viability,NCI-H2085; first compound 0.03162 µM,0.746
same,relative viability,NCI-H2085; first compound 0.3162 µM,0.538
same,relative viability,NCI-H2126; first compound 0.01 µM,0.574
same,relative viability,NCI-H2126; first compound 0.03162 µM,0.556
same,relative viability,NCI-H2126; first compound 0.3162 µM,0.532
same,relative viability,LU99A; first compound 0.01 µM,0.519
same,relative viability,LU99A; first compound 0.03162 µM,0.708
same,relative viability,LU99A; first compound 0.3162 µM,0.536
same,relative viability,NCI-H1915; first compound 0.01 µM,0.303
same,relative viability,NCI-H1915; first compound 0.03162 µM,0.297
same,relative viability,NCI-H1915; first compound 0.3162 µM,0.239
same,relative viability,LC-2-ad; first compound 0.01 µM,1.09
same,relative viability,LC-2-ad; first compound 0.03162 µM,0.898
same,relative viability,LC-2-ad; first compound 0.3162 µM,0.868
same,relative viability,NCI-H1993; first compound 0.01 µM,0.551
same,relative viability,NCI-H1993; first compound 0.03162 µM,0.493
same,relative viability,NCI-H1993; first compound 0.3162 µM,0.449
same,relative viability,HCC-78; first compound 0.01 µM,0.494
same,relative viability,HCC-78; first compound 0.03162 µM,0.669
same,relative viability,HCC-78; first compound 0.3162 µM,0.418
same,relative viability,SW 1573; first compound 0.01 µM,0.693
same,relative viability,SW 1573; first compound 0.03162 µM,0.604
same,relative viability,SW 1573; first compound 0.3162 µM,0.458
